From US12110286B2, “Benzimidazolone derived inhibitors of BCL6” (Cancer Research Technology Limited, priority 2017, dated 2024)
Read-outs that look alike come from different tables or passages of the source.

Assays:
[1] = target: Trx-6×His-BCL6 (human BCL6 BTB domain covering amino-acid sequence 5-129) (Homo sapiens (Human), UniProt P41182); assay: HTRF in vitro assay (BCL6 / BCOR-AF633 peptide); assay type: binding
Procedure: The % inhibition at each concentration was calculated by normalising FRET ratio to the appropriate high (DMSO with all reagents) and low (DMSO without BCL6) controls.

[2] = target: BCL6-NCOR2(SMRT) corepressor protein-protein interaction (Homo sapiens (Human), UniProt P41182); assay: NanoBRET cell assay; assay type: cell-based; details: transfected HEK293T cells, 6 hr; for IC50: read-out: NanoBRET cell pIC50 (converted)
Procedure: A cellular nano-Bioluminescence Resonance Energy Transfer (nanoBRET) assay (Promega NanoBRET Nano-Glo Detection System, catalogue number N1662) was used to detect inhibition of the BCL6-NCOR2(SMRT) corepressor protein-protein interaction. DNA encoding full length BCL6 and NCOR2 were inserted into pFC32K.NanoLuc and pFC14K.HaloTag vectors (Promega) to produce C-terminal tagged fusion proteins BCL6-nanoLuc and NCOR2-HaloTag, respectively. HEK293T cells were plated (5×10^5) in T75 tissue culture flask and bulk transfected 48 hours later with Fugene 6 (Promega cat. #E2691) reagent and 18 μg total DNA plasmids encoding BCL6-nanoLuc as donor and NCOR2-HaloTag as acceptor, at a donor:acceptor DNA ratio of 1:25. At 24 hr post-transfection, HEK293T cells were collected and stored in liquid nitrogen in 90% FBS (PAN Biotech UK) and 10% DMSO. […] Frozen transfected HEK293T cells were thawed, centrifuged and freezing medium was replaced by phenol red-free OptiMEM+4% FBS (Life Technology). […] Cells were incubated for 6 hr at 37° C./5% C02 then NanoBRET furimazine substrate (Promega) was added to give a final concentration of 10 μM. After a short centrifugation the plates were read on an Envision (Perkin Elmer) plate reader equipped with a LUM/D600 Dual mirror, Lum 450/40 nm bandpass and D605 nm longpass filters, with a 0.2 sec reading to determine the BRET ratio. The % inhibition at each test concentration was calculated by normalising the BRET ratio to the appropriate high and low controls.

[3] = further generated data, 1 nM Trx-6×His-BCL6, 300 nM BCOR-AF633 peptide, 0.5 nM anti-6×His-Terbium cryptate
[4] = initially generated data, 10 nM Trx-6×His-BCL6, 300 nM BCOR-AF633 peptide, 1 nM anti-6×His-Terbium cryptate

SMILES | HTRF pIC50 [1, 3] | further results
CNC(=O)c1cc(Nc2ccc3c(c2)n(CCC(C)(C)O)c(=O)n3C)c(C#N)c(Cl)n1 [Example 1a, 6-Chloro-5-cyano-4-[[3-(3-hydroxy-3-methyl-butyl)-1-methyl-2-oxo-benzimidazol-5-yl]amino]-N-methyl-pyridine-2-carboxamide] | 6.22 | HTRF pIC50 [1, 4]: 6.48; NanoBRET cell pIC50 ([2]; further generated data): 5.45; IC50 ([2]; initially generated data): 3.55 µM
Cc1cc(Nc2ccc3c(c2)n(CCC(C)(C)O)c(=O)n3C)c(C#N)c(Cl)n1 [Example 1b, 2-chloro-4-[[3-(3-hydroxy-3-methyl-butyl)-1-methyl-2-oxo-benzimidazol-5-yl]amino]-6-methyl-pyridine-3-carbonitrile] | – | HTRF pIC50 [1, 4]: 6.09; NanoBRET cell pIC50 ([2]; further generated data): 5.28; IC50 ([2]; initially generated data): 5.25 µM
CNC(=O)c1cc(Nc2ccc3c(c2)n(CC[C@@H](C)O)c(=O)n3C)c(C#N)c(Cl)n1 [Example 4, 6-Chloro-5-cyano-4-[[3-[(3R)-3-hydroxybutyl]-1-methyl-2-oxo-benzimidazol-5-yl]amino]-N-methyl-pyridine-2-carboxamide] | 5.79 | HTRF pIC50 [1, 4]: 5.99; NanoBRET cell pIC50 ([2]; further generated data): 5.20; IC50 ([2]; initially generated data): 6.31 µM
Cc1cc(C)n(-c2ncc(Cl)c(Nc3ccc4c(c3)n(CCC(C)(C)O)c(=O)n4C)n2)n1 [Example 15a, 5-[[5-Chloro-2-(3,5-dimethylpyrazol-1-yl)pyrimidin-4-yl]amino]-3-(3-hydroxy-3-methyl-butyl)-1-methyl-benzimidazol-2-one] | 6.61 | HTRF pIC50 [1, 4]: 6.56; IC50 ([2]; further generated data): 1.78 µM; IC50 ([2]; initially generated data): 2.04 µM
CCOC(=O)c1c(C)nn(-c2ncc(Cl)c(Nc3ccc4c(c3)n(CCC(C)(C)O)c(=O)n4C)n2)c1C [Example 15c] | 6.22 | IC50 ([2]; further generated data): 2.04 µM
Cn1c(=O)n(CCC(C)(C)O)c2cc(Nc3nc(-n4ccc(C(F)(F)F)n4)ncc3Cl)ccc21 [Example 15d] | 6.41 | IC50 ([2]; further generated data): 1.29 µM
C[C@@H]1CN(c2ncc(Cl)c(Nc3ccc4c(c3)n(CCC(C)(C)O)c(=O)n4CCN3CCOCC3)n2)C[C@H](C)C1(F)F [Example 37b, 5-((5-chloro-2-((3S,5R)-4,4-difluoro-3,5-dimethylpiperidin-1-yl)pyrimidin-4-yl)amino)-3-(3-hydroxy-3-methylbutyl)-1-(2-morpholinoethyl)-1,3-dihydro-2H-benzo[d]imidazol-2-one] | 6.47 | –
CCOC(=O)/C=C/Cn1c(=O)n(CCC(C)(C)O)c2cc(Nc3nc(N4C[C@@H](C)C(F)(F)[C@@H](C)C4)ncc3Cl)ccc21 [Example 38a, ethyl(E)-4-(5-((5-chloro-2-((3S,5R)-4,4-difluoro-3,5-dimethylpiperidin-1-yl)pyrimidin-4-yl)amino)-3-(3-hydroxy-3-methylbutyl)-2-oxo-2,3-dihydro-1H-benzo[d]imidazol-1-yl)but-2-enoate] | 5.53 | –
Cn1c(=O)n(CCC(C)(C)O)c2cc(Nc3nc(OCC(F)(F)F)ncc3Cl)ccc21 [Example 39a, 5-((5-Chloro-2-(2,2,2-trifluoroethoxy)pyrimidin-4-yl)amino)-3-(3-hydroxy-3-methylbutyl)-1-methyl-1,3-dihydro-2H-benzo[d]imidazol-2-one] | 6.09 | –
C[C@@H]1CN(c2ncc(Cl)c(Nc3ccc4c(c3)n(CCC(C)(C)O)c(=O)n4CCO)n2)C[C@H](C)C1(F)F [Example 40a, 5-[[5-chloro-2-[(3S,5R)-4,4-difluoro-3,5-dimethyl-1-piperidyl]pyrimidin-4-yl]amino]-1-(2-hydroxyethyl)-3-(3-hydroxy-3-methyl-butyl)benzimidazol-2-one] | 6.49 | –
COC(Cn1c(=O)n(CCC(C)(C)O)c2cc(Nc3nc(N4C[C@@H](C)C(F)(F)[C@@H](C)C4)ncc3Cl)ccc21)OC [Example 41a, 5-((5-chloro-2-((3S,5R)-4,4-difluoro-3,5-dimethylpiperidin-1-yl)pyrimidin-4-yl)amino)-1-(2,2-dimethoxyethyl)-3-(3-hydroxy-3-methylbutyl)-1,3-dihydro-2H-benzo[d]imidazol-2-one] | 6.06 | –
Cn1c(=O)n(CCC(C)(C)O)c2cc(Nc3nc(N4CCC(C#N)CC4)ncc3Cl)ccc21 [Example 42a, 1-(5-chloro-4-((3-(3-hydroxy-3-methylbutyl)-1-methyl-2-oxo-2,3-dihydro-1H-benzo[d]imidazol-5-yl)amino)pyrimidin-2-yl)piperidine-4-carbonitrile] | 6.60 | –
Cn1c(=O)n(CCC(C)(C)O)c2cc(Nc3nc(N4CCCC(C#N)C4)ncc3Cl)ccc21 (centres unmarked) [Example 42b, 1-(5-chloro-4-((3-(3-hydroxy-3-methylbutyl)-1-methyl-2-oxo-2,3-dihydro-1H-benzo[d]imidazol-5-yl)amino)pyrimidin-2-yl)piperidine-3-carbonitrile] | 6.46 | –
Cn1c(=O)n(CCC(C)(C)O)c2cc(Nc3nc(N4CCC(CN5CCOCC5)CC4)ncc3Cl)ccc21 [Example 42c, 5-((5-chloro-2-(4-(morpholinomethyl)piperidin-1-yl)pyrimidin-4-yl)amino)-3-(3-hydroxy-3-methylbutyl)-1-methyl-1,3-dihydro-2H-benzo[d]imidazol-2-one] | 6.56 | –
Cn1c(=O)n(CCC(C)(C)O)c2cc(Nc3nc(N4CCCC(CN5CCOCC5)C4)ncc3Cl)ccc21 (centres unmarked) [Example 42d, 5-((5-chloro-2-(3-(morpholinomethyl)piperidin-1-yl)pyrimidin-4-yl)amino)-3-(3-hydroxy-3-methylbutyl)-1-methyl-1,3-dihydro-2H-benzo[d]imidazol-2-one] | 6.54 | –
Cn1cc2c(n1)CN(c1ncc(Cl)c(Nc3ccc4c(c3)n(CCC(C)(C)O)c(=O)n4C)n1)CC2 [Example 42e, 5-((5-chloro-2-(2-methyl-2,4,5,7-tetrahydro-6H-pyrazolo[3,4-c]pyridin-6-yl)pyrimidin-4-yl)amino)-3-(3-hydroxy-3-methylbutyl)-1-methyl-1,3-dihydro-2H-benzo[d]imidazol-2-one] | 6.68 | –
Cn1ncc2c1CN(c1ncc(Cl)c(Nc3ccc4c(c3)n(CCC(C)(C)O)c(=O)n4C)n1)CC2 [Example 42f, 5-((5-chloro-2-(1-methyl-1,4,5,7-tetrahydro-6H-pyrazolo[3,4-c]pyridin-6-yl)pyrimidin-4-yl)amino)-3-(3-hydroxy-3-methylbutyl)-1-methyl-1,3-dihydro-2H-benzo[d]imidazol-2-one] | 6.58 | –
Cn1c(=O)n(CCC(C)(C)O)c2cc(Nc3nc(N4CCCC(CO)C4)ncc3Cl)ccc21 (centres unmarked) [Example 42g, 5-((5-chloro-2-(3-(hydroxymethyl)piperidin-1-yl)pyrimidin-4-yl)amino)-3-(3-hydroxy-3-methylbutyl)-1-methyl-1,3-dihydro-2H-benzo[d]imidazol-2-one] | 6.92 | –
Cn1c(=O)n(CCC(C)(C)O)c2cc(Nc3nc(N4CCC(N5CCOCC5)CC4)ncc3Cl)ccc21 [Example 42h, 5-((5-chloro-2-(4-morpholinopiperidin-1-yl)pyrimidin-4-yl)amino)-3-(3-hydroxy-3-methylbutyl)-1-methyl-1,3-dihydro-2H-benzo[d]imidazol-2-one] | 6.88 | –
Cn1c(=O)n(CCC(C)(C)O)c2cc(Nc3nc(N4CCC(n5cccn5)CC4)ncc3Cl)ccc21 [Example 42i, 5-((2-(4-(1H-pyrazol-1-yl)piperidin-1-yl)-5-chloropyrimidin-4-yl)amino)-3-(3-hydroxy-3-methylbutyl)-1-methyl-1,3-dihydro-2H-benzo[d]imidazol-2-one] | 6.85 | –
Cn1c(=O)n(CCC(C)(C)O)c2cc(Nc3nc(N4CCOC(CO)C4)ncc3Cl)ccc21 (centres unmarked) [Example 42j, 5-((5-chloro-2-(2-(hydroxymethyl)morpholino)pyrimidin-4-yl)amino)-3-(3-hydroxy-3-methylbutyl)-1-methyl-1,3-dihydro-2H-benzo[d]imidazol-2-one] | 6.81 | –
Cn1c(=O)n(CC2CCCN(C(=O)OC(C)(C)C)C2)c2cc(Nc3ccnc(Cl)c3C#N)ccc21 (centres unmarked) [tert-butyl 3-((6-((2-chloro-3-cyanopyridin-4-yl)amino)-3-methyl-2-oxo-2,3-dihydro-1H-benzo[d]imidazol-1-yl)methyl)piperidine-1-carboxylate] | – | activity in the HTRF assay ([1]; result in words): did not exhibit the desired activity
